Data published in patent US20080306002A1, “Combination Therapy for Preventing Angiogenesis” (The General Hospital Corporation, priority 2005, published 2008).

Key:
VEGF = settings: plus chemotherapy vs chemotherapy alone; cited from earlier work
IL8 promoter [1] = assay: IL-8 promoter reporter assay in DLD-1^HIF-kd cells in hypoxia; type: cell-based
Method: (§1) Cell lines. DLD-1 and Caco2 cells (ATCC) were stably transfected with HIF-1α siRNA constructs (pSuper.retro, OligoEngine), pSR.HIF-1α1470 or pSR.HIF-1α2192^10. […] In a pilot xenograft study, growth, microvascular density, VEGF and IL-8 levels were similar between a pSR.HIF-1α1470 clone and pSR.HIF-1α2192 clone. […] Transient transfections were performed using Lipofectamine 2000 (Invitrogen).
(§2) Transfections and Reporter Assays. 0.1-0.2 μg reporter constructs were co-transfected with 2 ng of pRL-CMV (Promega) and luciferase activity was measured with the Dual Luciferase Reporter Assay System (Promega). pRL-null, a promoter-less Renilla construct, was used when cells were co-transfected with a K-ras expression vector^29. The relative luciferase activity was calculated as Firefly/Renilla luciferase activity. The level of ‘hypoxic induction’ was the ratio between the relative luciferase activity in hypoxia to that in normoxia.

IL-8 = IL-8 mRNA (qRT-PCR) in parental DLD-1 cells given t-butyl hydroperoxide; type: cell-based
Method: Real-time PCR assay. RNA was extracted using the RNeasy kit (Qiagen) and quantitative reverse-transcription PCR was performed using the SuperScript III platinum Two-Step qRT-PCR Kit (Invitrogen). Primer sequences for VEGF, IL-8, and 18S RNA are available upon request. A fluorogenic SYBR Green and MJ research detection system were used for real time quantification.
Hydrogen peroxide studies. Measurement of H2O2 was performed using the Amplex Red Hydrogen peroxide Assay Kit and the CM-H2DCFDA reagent (both Molecular Probe). Cells were exposed to hypoxia for 10 h, and then culture medium was switched to Krebs-Ringer phosphate buffer^30 containing 100 μM Amplex Red reagent and 0.2 U/mL HRP. After additional incubation in hypoxia for 1 h, fluorescence was measured in 96-well plates by Spectra MAX GEMINI XS microplate fluorometer (Molecure Devices). Cells were also incubated with 10 μM CM-H2DCFDA for 30 minutes in RPMI without phenol red. Fluorescence was measured in 96 well plates and values were normalized to cell number. 20 or 40 μM t-butyl hydroperoxide (t-BH, Sigma) was added to the culture media of DLD-1 cells every 30 minutes for 6 hours, and IL-8 mRNA levels were measured by qRT-PCR.

IL8 promoter [2] = assay: IL-8 promoter reporter assay in Caco2 cells with KRAS^V12 and hypoxia; type: cell-based
Method: as §1, §2

NF-κB = NF-κB reporter assay in DLD-1^HIF-kd cells in hypoxia; type: cell-based
Method: Cell lines. DLD-1 and Caco2 cells (ATCC) were stably transfected with HIF-1α siRNA constructs (pSuper.retro, OligoEngine), pSR.HIF-1α1470 or pSR.HIF-1α2192^10. […] Transient transfections were performed using Lipofectamine 2000 (Invitrogen).
as §2

Chain of VEGF (P15692 207-311 limits assumed): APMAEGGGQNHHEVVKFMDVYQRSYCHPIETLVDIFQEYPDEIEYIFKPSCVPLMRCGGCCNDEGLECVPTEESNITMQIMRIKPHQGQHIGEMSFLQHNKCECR

## Avastin: A monoclonal antibody to VEGF; recombinant humanized antibody (Genentech)
VEGF
  survival: greater
  time to progression: highly significant longer

## Cc1ccc(S(=O)(=O)/C=C/C#N)cc1 [BAY 11-7082]
IL8 promoter [1]
  hypoxic induction of the IL8 promoter: significantly down-regulated
IL-8; 5 μM BAY 11-7082
  induction of IL-8 by t-butyl hydroperoxide: inhibited
IL8 promoter [2]
  induction of the IL8 promoter by hypoxia and KRAS^V12: blocked

## C=C(C)[C@H]1Cc2c(ccc3c2O[C@@H]2COc4cc(OC)c(OC)cc4[C@@H]2C3=O)O1 [rotenone]
NF-κB
  induction of NF-κB promoter activity by hypoxia: strongly blocked

## c1ccc2c(c1)[I+]c1ccccc1-2 [diphenylene iodonium]
NF-κB
  induction of NF-κB promoter activity by hypoxia: strongly blocked

## CC(C)(C)OO [t-butyl hydroperoxide]
IL-8; exogenous administration
  production of IL-8: stimulated
